From patent US11548860B2, “Pharmacophores, compounds and methods having application in the treatment of cancer through inhibition of CYP17A1 and CYP19A1” (MANGOSUTHU UNIVERSITY OF TECHNOLOGY, priority 2015, dated 2023)

Key:
[1] = biological target: CYP17A1 (Homo sapiens (Human), UniProt P05093); assay: CYP17A1 inhibition, CYP17A1 bactosomes, progesterone substrate, LC-MS/MS; type: biochemical; conditions: for IC50: 0.1 μM progesterone, 20 min, 37° C.; for inhibitory potency of CYP17A1, level in words: Table 2
Sequence of CYP17A1 (P05093 whole entry): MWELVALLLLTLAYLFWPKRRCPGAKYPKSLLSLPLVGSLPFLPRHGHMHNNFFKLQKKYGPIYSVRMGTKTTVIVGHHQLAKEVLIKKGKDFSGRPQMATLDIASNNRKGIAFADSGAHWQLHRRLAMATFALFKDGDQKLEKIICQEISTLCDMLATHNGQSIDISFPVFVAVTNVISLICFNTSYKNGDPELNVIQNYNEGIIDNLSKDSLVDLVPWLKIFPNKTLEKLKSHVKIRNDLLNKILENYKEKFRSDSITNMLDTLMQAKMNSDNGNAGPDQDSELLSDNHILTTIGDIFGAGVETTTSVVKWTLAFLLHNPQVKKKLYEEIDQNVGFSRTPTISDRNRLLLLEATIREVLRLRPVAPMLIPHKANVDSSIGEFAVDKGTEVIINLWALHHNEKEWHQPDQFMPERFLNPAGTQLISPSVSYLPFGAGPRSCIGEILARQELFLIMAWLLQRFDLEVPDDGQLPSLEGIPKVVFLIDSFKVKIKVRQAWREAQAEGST
Description: CYP17A1 inhibition was measured using 20 pmol/ml CYP17A1 bactosomes (Cypex, Dundee, UK) and 0.1 μM progesterone as a substrate and 1 mM NADPH in 50 mM potassium phosphate buffer pH 7.4 containing 5 mM magnesium chloride. Inhibitors were dissolved in DMSO and serially diluted in seven ½ log steps, final concentrations ranging from 50 μA to 50 nM. Reaction volume was 100 μl and final DMSO concentration was 1% (v/v). Reactions were started by the addition of NADPH and incubated at 37° C. for 20 minutes with shaking at 1800 rpm on a Bioshake IQ (Q-Instruments, Jena, Germany). Reactions were terminated by the addition of 200 μl methanol containing 1 μM tolbutamide as an internal standard.

[2] = biological target: CYP1A2 (Homo sapiens (Human), UniProt P05177); assay: CYP inhibition against major 5 human liver CYPs in E. coli CYPEX membranes: CYP1A2 (tacrine); type: in vitro ADME; conditions: bactosome mix, 10 min, 37° C.
Sequence of CYP1A2 (P05177 whole entry, canonical isoform): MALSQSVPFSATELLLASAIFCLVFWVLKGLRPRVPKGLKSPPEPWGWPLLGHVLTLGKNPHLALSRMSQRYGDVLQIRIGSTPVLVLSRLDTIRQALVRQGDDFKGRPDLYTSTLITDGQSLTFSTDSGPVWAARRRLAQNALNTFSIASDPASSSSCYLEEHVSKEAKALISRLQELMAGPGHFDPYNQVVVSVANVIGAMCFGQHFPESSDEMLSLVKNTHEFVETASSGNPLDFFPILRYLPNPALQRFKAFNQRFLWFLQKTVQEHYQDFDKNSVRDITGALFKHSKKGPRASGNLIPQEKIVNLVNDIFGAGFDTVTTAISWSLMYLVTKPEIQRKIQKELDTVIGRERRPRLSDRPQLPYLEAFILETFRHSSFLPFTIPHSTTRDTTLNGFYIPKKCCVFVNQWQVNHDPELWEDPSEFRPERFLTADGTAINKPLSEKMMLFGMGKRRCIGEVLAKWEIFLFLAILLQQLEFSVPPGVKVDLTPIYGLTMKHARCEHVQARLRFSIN
Description: (§1) Test compounds and control inhibitors were prepared as stocks in DMSO from the solid compound. The stocks were diluted in 0.1 M phosphate buffer (pH 7.4) at four times the final concentration prior to addition into the incubation tubes. The final DMSO concentration was 1%. […] Catalogue number CYP/XG001, Batch XG001001). Selective and FDA accepted substrates for each isoform were used at a concentration around the Km for each substrate. Activity of each isoform was assessed by measuring the appearance of an isoform-specific metabolite. A cocktail of 5 isoform-specific inhibitors was used as a positive control. […] Reactions were stopped by addition of 100 μl MeOH/1 μM Tolbutamide (internal standard). The quenched samples were mixed thoroughly and protein precipitated at −20° C. overnight. Samples were centrifuged at 2,500×g (3,400 rpm) for 20 minutes, 4° C. The supernatants were transferred to a 96 well-plate and analysed by LC-MS/MS. […] The LC-MS/MS peak responses (CYP metabolite peak area/internal standard peak area) for each test compound or positive control inhibitor were used and the response for each sample was expressed as a percentage of an uninhibited control (DMSO incubation).

[3] = biological target: CYP2C9 (Homo sapiens (Human), UniProt P11712); assay: CYP inhibition against major 5 human liver CYPs in E. coli CYPEX membranes: CYP2C9 (diclofenac); type: in vitro ADME; conditions: bactosome mix, 10 min, 37° C.
Sequence of CYP2C9 (P11712 whole entry): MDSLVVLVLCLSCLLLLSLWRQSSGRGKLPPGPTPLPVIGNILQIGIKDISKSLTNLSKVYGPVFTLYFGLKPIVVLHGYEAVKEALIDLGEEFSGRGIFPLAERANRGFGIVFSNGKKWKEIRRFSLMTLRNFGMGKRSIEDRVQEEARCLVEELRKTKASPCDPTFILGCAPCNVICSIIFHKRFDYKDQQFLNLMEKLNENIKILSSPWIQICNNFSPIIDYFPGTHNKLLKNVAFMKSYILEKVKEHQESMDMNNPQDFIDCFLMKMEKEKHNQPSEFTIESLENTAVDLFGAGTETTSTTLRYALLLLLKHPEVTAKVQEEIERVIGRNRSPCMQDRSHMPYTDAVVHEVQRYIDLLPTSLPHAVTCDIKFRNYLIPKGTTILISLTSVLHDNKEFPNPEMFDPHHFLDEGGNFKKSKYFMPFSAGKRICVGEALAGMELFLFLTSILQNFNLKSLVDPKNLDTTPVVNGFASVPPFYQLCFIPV

[4] = biological target: CYP2C19 (Homo sapiens (Human), UniProt P33261); assay: CYP inhibition against major 5 human liver CYPs in E. coli CYPEX membranes: CYP2C19 ((S)-mephenytoin); type: in vitro ADME; conditions: bactosome mix, 10 min, 37° C.
Sequence of CYP2C19 (P33261 whole entry): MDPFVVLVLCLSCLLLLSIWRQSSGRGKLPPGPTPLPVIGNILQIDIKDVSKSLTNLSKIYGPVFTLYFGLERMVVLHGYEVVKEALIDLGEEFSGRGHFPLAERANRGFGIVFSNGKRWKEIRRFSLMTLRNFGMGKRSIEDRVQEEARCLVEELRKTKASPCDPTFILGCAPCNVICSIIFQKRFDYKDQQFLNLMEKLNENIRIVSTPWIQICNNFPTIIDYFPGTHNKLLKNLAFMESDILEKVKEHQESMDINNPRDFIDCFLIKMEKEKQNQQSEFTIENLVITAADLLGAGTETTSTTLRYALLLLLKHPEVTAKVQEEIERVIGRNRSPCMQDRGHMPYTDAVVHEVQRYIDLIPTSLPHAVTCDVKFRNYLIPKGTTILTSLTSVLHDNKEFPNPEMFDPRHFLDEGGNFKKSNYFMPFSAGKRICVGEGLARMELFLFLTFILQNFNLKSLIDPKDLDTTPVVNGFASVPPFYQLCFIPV
Description: as §1

[5] = biological target: CYP2D6 (Homo sapiens (Human), UniProt P10635); assay: CYP inhibition against major 5 human liver CYPs in E. coli CYPEX membranes: CYP2D6 (bufuralol); type: in vitro ADME; conditions: bactosome mix, 10 min, 37° C.
Sequence of CYP2D6 (P10635 whole entry, canonical isoform): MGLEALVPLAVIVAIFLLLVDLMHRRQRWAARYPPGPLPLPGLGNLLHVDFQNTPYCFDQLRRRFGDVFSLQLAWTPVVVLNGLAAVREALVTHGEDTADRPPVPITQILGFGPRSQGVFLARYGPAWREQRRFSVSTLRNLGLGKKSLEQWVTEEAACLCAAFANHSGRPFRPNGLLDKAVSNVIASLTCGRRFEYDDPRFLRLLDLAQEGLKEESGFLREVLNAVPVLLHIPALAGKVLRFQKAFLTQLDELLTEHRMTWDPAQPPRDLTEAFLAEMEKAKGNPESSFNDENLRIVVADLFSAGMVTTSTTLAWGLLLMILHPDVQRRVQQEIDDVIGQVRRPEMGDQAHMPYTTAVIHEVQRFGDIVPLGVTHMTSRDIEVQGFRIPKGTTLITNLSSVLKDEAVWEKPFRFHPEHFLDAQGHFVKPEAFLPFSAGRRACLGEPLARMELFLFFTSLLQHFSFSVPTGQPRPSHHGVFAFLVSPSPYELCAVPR
Description: Test compounds and control inhibitors were prepared as stocks in DMSO from the solid compound. The stocks were diluted in 0.1 M phosphate buffer (pH 7.4) at four times the final concentration prior to addition into the incubation tubes. The final DMSO concentration was 1%. […] Catalogue number CYP/XG001, Batch XG001001). Selective and FDA accepted substrates for each isoform were used at a concentration around the Km for each substrate. Activity of each isoform was assessed by measuring the appearance of an isoform-specific metabolite. A cocktail of 5 isoform-specific inhibitors was used as a positive control. […] Reactions were stopped by addition of 100 μl MeOH/1 μM Tolbutamide (internal standard). The quenched samples were mixed thoroughly and protein precipitated at −20° C. overnight. Samples were centrifuged at 2,500×g (3,400 rpm) for 20 minutes, 4° C. The supernatants were transferred to a 96 well-plate and analysed by LC-MS/MS. The following LC-MS/MS conditions were used to analyse the 5CYP inhibition samples: • Column: Waters ACE Excel C18-AR, 50×2.1 mm, 2 μm • Mobile phase A: MilliQ water+0.1% formic acid • Mobile phase B: Methanol+0.1% formic acid • Flow rate: 0.8 ml/min The CYP activities for each test compound/positive control inhibitor at each concentration were converted to % of control activity (CA). The LC-MS/MS peak responses (CYP metabolite peak area/internal standard peak area) for each test compound or positive control inhibitor were used and the response for each sample was expressed as a percentage of an uninhibited control (DMSO incubation).

[6] = biological target: CYP3A4 (Homo sapiens (Human), UniProt P08684); assay: CYP inhibition against major 5 human liver CYPs in E. coli CYPEX membranes: CYP3A4 (midazolam); type: in vitro ADME; conditions: bactosome mix, 10 min, 37° C.
Sequence of CYP3A4 (P08684 whole entry): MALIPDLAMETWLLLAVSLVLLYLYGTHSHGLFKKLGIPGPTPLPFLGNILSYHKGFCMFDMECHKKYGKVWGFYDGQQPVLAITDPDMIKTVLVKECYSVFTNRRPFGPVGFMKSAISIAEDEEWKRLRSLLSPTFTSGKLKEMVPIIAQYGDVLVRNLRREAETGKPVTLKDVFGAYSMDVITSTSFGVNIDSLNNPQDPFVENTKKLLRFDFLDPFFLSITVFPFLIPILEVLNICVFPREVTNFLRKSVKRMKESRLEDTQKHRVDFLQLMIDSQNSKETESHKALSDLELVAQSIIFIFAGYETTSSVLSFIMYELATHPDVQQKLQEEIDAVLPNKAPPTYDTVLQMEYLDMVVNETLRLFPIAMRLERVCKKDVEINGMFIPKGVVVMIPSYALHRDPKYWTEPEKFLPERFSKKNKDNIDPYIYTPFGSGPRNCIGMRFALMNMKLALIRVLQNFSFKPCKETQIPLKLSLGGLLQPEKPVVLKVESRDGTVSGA
Description: as §1

[7] = Solubility in DMSO; type: physicochemical
[8] = Toxicity studies on the molecules in Table 2
[9] = system: CYP1A2, CYP2C9, CYP2C19, CYP2D6, and CYP3A4; assay: Summary of inhibition of metabolic CYP450 isoforms (5 CYP panel); type: in vitro ADME, human; conditions: Table 2
[10] = biological target: CYP19A1 (Homo sapiens (Human), UniProt P11511); assay: CYP19A1 inhibition, CYP19/MFC High Throughput Inhibitor Screen Kit, fluorescence; type: biochemical; conditions: for IC50 values against CYP19A1, potency level in words: Table 2
Sequence of CYP19A1 (P11511 whole entry): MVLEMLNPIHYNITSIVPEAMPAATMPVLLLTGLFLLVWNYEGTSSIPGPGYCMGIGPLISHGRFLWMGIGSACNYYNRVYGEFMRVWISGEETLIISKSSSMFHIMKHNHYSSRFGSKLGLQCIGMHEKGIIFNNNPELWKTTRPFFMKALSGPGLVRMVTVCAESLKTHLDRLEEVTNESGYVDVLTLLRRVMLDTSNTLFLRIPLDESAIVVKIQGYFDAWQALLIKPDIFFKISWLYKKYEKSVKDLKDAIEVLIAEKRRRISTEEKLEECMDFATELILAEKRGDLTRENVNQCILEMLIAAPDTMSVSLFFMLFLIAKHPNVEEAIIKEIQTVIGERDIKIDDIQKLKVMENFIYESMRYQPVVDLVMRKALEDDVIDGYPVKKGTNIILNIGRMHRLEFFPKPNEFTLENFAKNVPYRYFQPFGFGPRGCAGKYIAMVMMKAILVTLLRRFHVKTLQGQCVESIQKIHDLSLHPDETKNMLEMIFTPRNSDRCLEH
Description: Test compounds and control inhibitors were prepared as stocks in either Acetonitrile or DMSO from the solid compound. Compounds were serially diluted in ½ log steps in the same solvent. CYP19A1 inhibition experiments were performed using the CYP19/MFC High Throughput Inhibitor Screen Kit (Corning). Test compounds were tested in seven concentrations: […] CYP19A1 reactions were performed in black 96 well-plates (Greiner) according to the manufacturer's instructions. […] Final organic solvent concentrations were either 4% (v/v) acetonitrile or 0.5% (v/v) Dimethyl sulfoxide. The plates were covered with self-adhesive film lids and incubated for 10 minutes at 37° C. Reactions were terminated by the addition of 75 μl Stop Solution (100 mM Tris base in acetonitrile: MilliQ water (80:20). […] The CYP activities for each test compound/positive control inhibitor at each concentration were converted to % of control activity (CA). The LC-MS/MS peak responses (CYP metabolite peak area/internal standard peak area) for each test compound or positive control inhibitor were used and the response for each sample was expressed as a percentage of an uninhibited control (DMSO incubation).

[11] = system: CYP17A1 and CYP19A1; assay: Classification as Dual Inhibitor (inhibitor of both CYP17A1 and CYP19A1); conditions: inhibitors of both CYP17A1 and CYP19A1

SMILES	IC50 [1]	inhibitory potency of CYP17A1, level in words [1]	IC50 [2]	IC50 [3]	IC50 [4]	IC50 [5]	IC50 [6]	Soluble in DMSO [7]	safety profile [8]	inhibition of various CYP450 isoforms (drug-drug interaction) [9]	IC50 values against CYP19A1, potency level in words [10]	Dual Inhibitor classification [11]	IC50 ([10]; 25 μM MFC, 10 min, 37° C.)
CCCC(=O)Nc1ccc(C(=O)C(C)OC(=O)c2n[nH]c3ccccc23)cc1 (racemic) [Compound 6, 1-(4-butanamidophenyl)-1-oxopropan-2-yl-1H-indazole-3-carboxylate]	> 50 µM	micromolar levels	> 50 µM	2.5 µM	41.2 µM	> 50 µM	> 50 µM	Yes	excellent safety profiles	–	–	–	–
Cc1cccc(C(=O)OCCOc2ccc(S(N)(=O)=O)cc2)c1N [Compound 4, 2-(4-sulfamoylphenoxy) ethyl 2-amino-3-methylbenzoate]	–	–	–	–	–	3.3 µM	–	Yes	reasonably good safety profiles	inhibit various CYP450 isoforms	–	–	–
O=C1COc2cc(NCc3cccc(NC(=O)c4ccccc4Cl)c3)c(Cl)cc2N1 [Compound 7, 2-chloro-N-(3-{[(6-chloro-3-oxo-3,4-dihydro-2H-1,4-benzoxazin-7-yl)amino]methyl}phenyl)benzamide]	–	micromolar levels	–	–	–	–	–	Yes	excellent safety profiles	–	sub-micromolar inhibitory potency levels	Dual Inhibitors	–
O=C1COc2cc(NCc3cccc(C(=O)Nc4cccnc4)c3)ccc2N1 [Compound 10, 3-{[(3-oxo-3,4-dihydro-2H-1,4-benzoxazin-7-yl)amino]methyl}-N-(pyridin-3-yl)benzamide]	–	micromolar levels	–	–	–	–	–	Yes	excellent safety profiles	–	sub-micromolar inhibitory potency levels	Dual Inhibitors	–
O=C1COc2cc(NC(=O)c3cc(NC(=O)c4cn[nH]c4)ccc3Cl)ccc2N1 [Compound 12, N-{4-chloro-3-[(3-oxo-3,4-dihydro-2H-1,4-benzoxazin-7-yl)carbamoyl]phenyl}-1H-pyrazole-4-carboxamide]	> 50 µM	–	> 50 µM	22.5 µM	> 50 µM	> 50 µM	18.3 µM	Yes	excellent safety profiles	–	sub-micromolar inhibitory potency levels	Dual Inhibitors	0.06 µM
O=C1COc2cc(NCc3cccc(C(=O)Nc4cccnc4)c3)c(Cl)cc2N1 [Compound 13, 3-{[(6-chloro-3-oxo-3,4-dihydro-2H-1,4-benzoxazin-7-yl)amino]methyl}-N-(pyridin-3-yl)benzamide]	–	–	–	–	–	–	–	Yes	reasonably good safety profiles	inhibit various CYP450 isoforms	sub-micromolar inhibitory potency levels	Dual Inhibitors	–
